The results in this text go back to article PMC11477482 (Molecules, 2024).

For data set [1], the system named is RAW264.7 cells (mitochondrial O2− production). In words: Mitochondrial antioxidant activity (MitoSOX, rotenone-induced superoxide). The class given is cell-based, mouse. The settings on record: 500 μM; for mitochondrial antioxidant activity: rotenone 20 μM. As to the method:
The human keratinocytes (HaCaT, CLS 300493, Eppelheim, Germany) cell line was cultured with Dulbecco’s Modified Eagle’s Medium (DMEM) (Sigma-Aldrich, St. Louis, MO, USA), supplemented with 10% (v/v) of heat-inactivated fetal bovine serum (FBS), 1% (v/v) antibiotic solution (from a 10,000 U/mL penicillin and 10,000 μg/mL streptomycin stock) (Gibco, Carlsbad, CA, USA), 3.7 g/L sodium bicarbonate, and 1 mM sodium pyruvate (Sigma-Aldrich, St. Louis, MO, USA). The cell culture of keratinocytes was detached with EDTA solution 1X (Sigma-Aldrich, St. Louis, MO, USA) when the cells reached 70–80% confluence in cell culture flasks. The mouse macrophage cell line (RAW 264.7, ATCC TIB-71, Manassas, VA, USA) was cultured in DMEM supplemented with 10% (v/v) non-inactivated FBS, 1% (v/v) antibiotic solution, 1.5 g/L sodium bicarbonate, and 1 mM sodium pyruvate. Macrophages were mechanically detached with a cell scraper and subcultured in (1:10) proportion of cellular suspension to a final volume of DMEM. The human monocytic cell line THP-1 (ATCC® TIB-202™, American Type Culture Collection, Manassas, VA, USA) was cultivated in RPMI 1640 supplemented with 10% inactivated FBS, 25 mM (D)-glucose, 10 mM HEPES, 1 mM sodium pyruvate, 100 U/mL penicillin, and 100 μg/mL streptomycin, and maintained at a cell density of 0.4 × 10^6 cells/mL. Cells were subcultured every 2 or 3 days and maintained in culture for 2–3 months, according to ATCC® instructions.
Mitochondrial superoxide (O2^−) generation was determined using the MitoSOX Red kit, according to the manufacturer’s instructions. Briefly, 5.0 × 10^5 cells/mL were plated in a 12-well plate and incubated for 24 h at 37 °C. The cells were then exposed to the AA, AAG and AAGS solution (500 µM), and after 1 h, rotenone (20 μM) was added, followed by incubation for an additional 5 h. The cells were then carefully detached, transferred to microtubes, and centrifuged at 500× g for 3 min. The cell pellet was washed with HBSS solution (2 × 1 mL), resuspended in PBS solution, and 300 µL was collected in two microtubes for unstained (150 µL) and stained (150 µL) conditions. The stained cells were incubated with 100 μL of freshly prepared MitoSOX solution 2.5 µM at 37 °C for 15 min in the dark. The stained cells were washed with HBSS solution (2 × 1 mL), and the cell pellet was resuspended in 100 μL of PBS and analyzed by flow cytometry using a BD Accuri™ C6 cytometer (San Jose, CA, USA).
CD86 and CD54 levels were analyzed by flow cytometry using the acquisition channels FL1 and FL4. Mitochondrial O2^− production was measured by flow cytometry using the acquisition channel FL2. The relative fluorescence intensity (RFI) of CD86 and CD54 (THP-1 maturation assay) and MitoSOX (mitochondrial antioxidant activity) in the control and chemical-treated cells, based on the geometric mean fluorescence intensity (MFI), was calculated according to the following equation: RFI=MFI of chemical treated cells−MFI of chemical treated unstained cells/MFI of control treated cells−MFI of control unstained cells ×100

Data set [2] in a line: DPPH radical scavenging assay. The settings on record: ethanol, 15 min in the dark, 517 nm; ± SD. Here is the method:
Stock solutions of each compound (100 µM) and DPPH solution (150 µM) were prepared in ethanol. Different concentrations of antioxidant solutions (0.1–50 µM) were prepared to test their antioxidant effect. In a 96-well plate, 100 µL of DPPH working solution was added to a 100 µL sample solution and incubated at room temperature for 15 min in the dark. The absorbance of each sample was measured at 517 nm, in a microplate reader. For the negative control, 100 μL ethanol was added instead of the antioxidant solution. Rutin was used as the positive control. Inhibition curves were constructed, and the half maximal effective concentration (EC50) values were calculated for all samples by linear regression for the three independent assays performed.
Background: Loss of DPPH colour is used to gauge radical scavenging.

Data set [3] is described as follows: Stability in metal solutions, pH 5 (UV-vis absorbance). It counts as physicochemical. Here is the method:
Five independent metal solutions (100 µM) were prepared in a buffer at pH 5, in triplicate. To the compound solutions, a volume of metal solutions was added to a final proportion of 1:1. The stability in the presence of different metals was analyzed at specific time points. The solutions were stored at room temperature in the dark. Aliquots of 3.00 mL were transferred to quartz cuvettes at specific time points to measure their absorbance using UV–vis spectrophotometry. Solutions of each metal were used as blanks.

Each structure is given as a SMILES string. “Also recorded” adds a separate entry of the source.

For `O=C1O[C@H]([C@@H](O)CO)C(O)=C1O` [AA, Ascorbic acid], the “pro-oxidant profile” value in data set [1] is “AA, AAG, and AAGS with no pro-oxidant profile % inhibition of rotenone-induced SO2^− production: AA > AAG > AAGS”. This molecule yielded an EC50 in data set [2] of 1.54 ± 0.21 µM. In addition, the loss of absorbance in data set [3] (pH 5, Cu(II), Fe(II), and Fe(III)) is on record as over 80%.

In the case of `O=C1O[C@H]([C@@H](O)CO)C(O)=C1O[C@H]1O[C@H](CO)[C@@H](O)[C@H](O)[C@H]1O` [AAG, 2-O-α-D-glucopyranosyl-L-ascorbic acid], in data set [1], the “pro-oxidant profile” value was “AA, AAG, and AAGS with no pro-oxidant profile % inhibition of rotenone-induced SO2^− production: AA > AAG > AAGS”; the “mitochondrial antioxidant activity” value was “did not demonstrate an ability to exert antioxidant activity in mitochondria”. This molecule yielded an EC50 in data set [2] of 9.15 ± 0.13 µM. Besides, in data set [3] (pH 5, Fe(III) and Cu(II), at the end of 1 d), the loss of absorbance is on record as under 30%.

Take `O=C1OC(C(COS(=O)(=O)O)OS(=O)(=O)O)C(OS(=O)(=O)O)=C1OC1OC(COS(=O)(=O)O)C(OS(=O)(=O)O)C(OS(=O)(=O)O)C1OS(=O)(=O)O` [AAGS, 2-O-α-D-glucopyranosyl-L-ascorbic acid persulfate]: in data set [1], the “pro-oxidant profile” value is “non-prooxidant; also recorded: AA, AAG, and AAGS with no pro-oxidant profile % inhibition of rotenone-induced SO2^− production: AA > AAG > AAGS”; the “mitochondrial antioxidant activity” value was “did not demonstrate an ability to exert antioxidant activity in mitochondria”. A half-maximal effect in data set [2] (EC50) was put at 5.28 ± 0.36 µM. This molecule also gave a loss of absorbance in data set [3] (pH 5, Ca(II), Cu(II), and Fe(III), after one day) of over 50%.

The EC50 is the concentration giving half of the maximal effect. High values mean a need for much substance, low ones an effect from little substance.
